Measurements reported in patent US20190248739A1 (NEWLINK GENETICS CORPORATION, priority 2015, published 2019).
Where a name gives a salt, the structure may show the parent alone. Where a SMILES comes first, the peptide text is derived from it. [ ]: non-standard residue; d: D form. dTrp(1-Me) = Cn1cc(C[C@@H](N)C(=O)O)c2ccccc21

Experiments:
[1] = pharmacokinetic testing of indoximod prodrug salts in solid capsule formulation in rats; assay type: in vivo; details: rats; for % Change Cmax / % Change in AUC: vs indoximod free base, oral capsules; for increase in indoximod AUC versus equivalent molar dose of indoximod / increase in indoximod Cmax versus equivalent molar dose of indoximod: dose not given (Tables 10.2, 10.3)
Description: These blends were formulated so that each capsule contained the same molar dose of each prodrug. […] The composition and uniformity of a representative sample of capsules from each batch was verified by weight and by LC-MS/MS to determine the average indoximod or prodrug content.
(§1) Rats were fasted 16 h prior to dosing to eliminate any confounding food effects, and food was returned 2 h after dosing.

[2] = hygroscopicity and stability of indoximod and its salts; assay type: physicochemical; details: Table 2; in % (unit assumed)
[3] = pharmacokinetic testing of indoximod salts in capsule formulation in rats; assay type: in vivo; details: capsules, 37 μmol/kg, hydrogen sulfate
Description: Three dose levels were investigated: 37, 185 or 500 μmol/kg.
Capsules were manually filled and the composition uniformity of a representative sample of capsules from each batch was verified by weight and by LC-MS/MS to determine the average indoximod content.
as §1

[4] = solubility of indoximod and its salts in water, buffers and SGF; assay type: physicochemical; details: 25° C.
[5] = pharmacokinetic testing of indoximod prodrugs in liquid formulation in mice; details: mice; for change in indoximod Cmax versus indoximod in suspension: oral, all doses tested (10, 50 and 100 mg/kg)
Description: Blood samples (0.1-0.2 mL) were collected from the femoral artery port from rats or by retro-orbital bleeding from mice and plasma was immediately collected by centrifugation and stored on dry ice to avoid prodrug hydrolysis after plasma collection. […] The pharmacokinetic parameters reflect the average of individual parameter values obtained from each individual rat (n) or one common parameter from a single pharmacokinetic curve derived from blood samples obtained from a group of mice (n).

[6] = Table 10.2, dose 37 μmol/kg, salt form HCl
[7] = Table 10.2, dose 185 μmol/kg, salt form H3PO4
[8] = Table 10.2, dose 185 μmol/kg, salt form HCl
[9] = Table 10.3, dose 37 μmol/kg, salt form free base
[10] = Table 10.1, dose 37 μmol/kg, salt form free base

Compound: CSCC[C@H](N)C(=O)N[C@H](Cc1cn(C)c2ccccc12)C(=O)O [NLG-3380] (H-Met-[dTrp(1-Me)]-OH)
- % Change Cmax [1, 6]: 16%
- % Change in AUC [1, 6]: 24%
- % Change Cmax [1, 7]: 118%
- % Change in AUC [1, 7]: 66%
- % Change Cmax [1, 8]: 345%
- % Change in AUC [1, 8]: 181%

Compound: O=S(=O)(O)O [Sulfate]
- Hygroscopicity (0-80% RH) [2]: 3.4

Compound: CCOC(=O)[C@@H](Cc1cn(C)c2ccccc12)NC(=O)[C@@H](N)CCSC [NLG-3272, ethyl N^α-(L-methionyl)-1-methyl-D-tryptophanate] (H-Met-[dTrp(1-Me)]-OEt)
- change in indoximod AUC versus indoximod ([1]; capsules, 37-500 μmol/kg): statistically significant increase
- change in indoximod Cmax versus indoximod ([1]; capsules, 37-500 μmol/kg): statistically significant increase

Compound: Cn1cc(C[C@@H](N)C(=O)OCC(O)CO)c2ccccc21 (stereo partly drawn) [NLG-1628, (2R)-1-(2,3-dihydroxypropoxy)-3-(1-methyl-1H-indol-3-yl)-1-oxopropan-2-aminium sulfate]
- increase in indoximod AUC versus equivalent molar dose of indoximod ([1]; capsules): less significant increases
- increase in indoximod Cmax versus equivalent molar dose of indoximod ([1]; capsules): less significant increases

Compound: Cn1cc(C[C@@H](N)C(=O)OCC(O)CO)c2ccccc21 (stereo partly drawn) [NLG-1558, 2,3-dihydroxypropyl 1-methyl-D-tryptophanate hydrochloride]
- increase in indoximod AUC versus equivalent molar dose of indoximod ([1]; capsules, hydrochloride): less significant increases
- increase in indoximod Cmax versus equivalent molar dose of indoximod ([1]; capsules, hydrochloride): less significant increases

Compound: CCOC(=O)[C@@H](Cc1cn(C)c2ccccc12)NC(=O)C[C@H](N)C(=O)OC.Cl [NLG-1585, methyl N^4-((R)-1-ethoxy-3-(1-methyl-1H-indol-3-yl)-1-oxopropan-2-yl)-L-asparaginate hydrochloride]
- increase in indoximod AUC versus equivalent molar dose of indoximod ([1]; capsules): minor and non-statistically significant variations
- increase in indoximod Cmax versus equivalent molar dose of indoximod ([1]; capsules): minor and non-statistically significant variations

Compound: Cn1cc(C[C@@H](N)C(=O)O)c2ccccc21 [indoximod H2SO4, (R)-1-carboxy-2-(1-methyl-1H-indol-3-yl)ethan-1-aminium hydrogen sulfate]
- % Increase over indoximod Free Base (AUC) [3]: 42%
- % Increase over indoximod Free Base (Cmax) [3]: 42%
- AUC(0 −> ∞) [3]: 553 ± 196 µM·h
- Cmax [3]: 22.6 ± 7 µM

Compound: Cn1cc(C[C@@H](NC(=O)[C@@H](N)CCCCN)C(=O)O)c2ccccc21 [N^α-(L-lysyl)-1-methyl-D-tryptophan] (H-Lys-[dTrp(1-Me)]-OH)
- increase in indoximod AUC versus equivalent molar dose of indoximod ([1]; capsules): minor and non-statistically significant variations
- increase in indoximod Cmax versus equivalent molar dose of indoximod ([1]; capsules): minor and non-statistically significant variations

Compound: CCOC(=O)[C@@H](Cc1cn(C)c2ccccc12)NC(=O)[C@@H](N)CC(C)C.Cl [NLG-1564, ethyl N^α-(L-leucyl)-1-methyl-D-tryptophanate hydrochloride]
- change in indoximod AUC compared to indoximod ([1]; capsules, 500 μmol/kg): minor increase
- change in indoximod Cmax compared to indoximod ([1]; capsules, 500 μmol/kg): minor increase
- increase in indoximod Cmax versus indoximod ([1]; capsules, 37-185 μmol/kg): significant increases

Compound: CS(=O)(=O)O.Cn1cc(C[C@@H](N)C(=O)O)c2ccccc21.Cn1cc(C[C@@H](N)C(=O)O)c2ccccc21 [Hemi-Mesylate]
- Solubility (25° C., mg/mL) SGF ([4]; SGF): 6.0 mg/mL
- pH of the SGF solution (in brackets) ([4]; SGF solubility test): 1.84
- Solubility (25° C., mg/mL) Water ([4]; water): 5.5 mg/mL
- pH of the water solution (in brackets) ([4]; water solubility test): 2.34

Compound: CCOC(=O)[C@@H](Cc1cn(C)c2ccccc12)NC(=O)[C@@H](N)CC(C)C [NLG-1691, ethyl N^α-((S)-2-(λ^4-azanyl)-4-methylpentanoyl)-1-methyl-D-tryptophanate sulfate]
- increase in exposure (AUC) of indoximod versus indoximod ([1]; capsules, 37-185 μmol/kg): did not result in a significant increase
- increase in indoximod Cmax versus indoximod ([1]; capsules, 37-185 μmol/kg): did not result in a significant increase

Compound: CCOC(=O)[C@@H](Cc1cn(C)c2ccccc12)NC(=O)[C@@H](N)CCC(N)=O [ethyl N^α-(L-glutaminyl)-1-methyl-D-tryptophanate] (H-Gln-[dTrp(1-Me)]-OEt)
- increase in indoximod AUC versus equivalent molar dose of indoximod ([1]; capsules): minor and non-statistically significant variations
- increase in indoximod Cmax versus equivalent molar dose of indoximod ([1]; capsules): minor and non-statistically significant variations

Compound: CCOC(=O)[C@@H](Cc1cn(C)c2ccccc12)NC(=O)[C@@H](N)CCC(N)=O [NLG-1672] (H-Gln-[dTrp(1-Me)]-OEt)
- % Change Cmax [1, 9]: 5%
- % Change in AUC [1, 9]: −16%

Compound: CCOC(=O)[C@@H](Cc1cn(C)c2ccccc12)NC(=O)[C@@H](N)CC(C)C [NLG-1666, (S)-1-(((R)-1-ethoxy-3-(1-methyl-1H-indol-3-yl)-1-oxopropan-2-yl)amino)-4-methyl-1-oxopentan-2-aminium methanesulfonate]
- increase in indoximod Cmax versus indoximod ([1]; capsules, 37-185 μmol/kg, methanesulfonate): significant increases

Compound: Cn1cc(C[C@@H](NC(=O)[C@@H](N)CCCCN)C(=O)O)c2ccccc21 [NLG-1676] (H-Lys-[dTrp(1-Me)]-OH)
- % Change Cmax [1, 10]: −17%
- % Change in AUC [1, 10]: −13%

Compound: CCOC(=O)[C@@H](Cc1cn(C)c2ccccc12)NC(=O)[C@@H](N)CC(C)C.O=P(O)(O)O [NLG-1665]
- increase in indoximod Cmax versus indoximod ([1]; capsules, 37-185 μmol/kg): significant increases
- change in indoximod Cmax versus indoximod in suspension [5]: significant increase

Compound: Cn1cc(C[C@@H](N)C(=O)OCC(O)CO)c2ccccc21.O=P(O)(O)O (stereo partly drawn) [NLG-1626, (2R)-1-(2,3-dihydroxypropoxy)-3-(1-methyl-1H-indol-3-yl)-1-oxopropan-2-dihydrogen phosphate]
- change in indoximod AUC versus indoximod ([5]; oral, 10, 50 and 100 mg/kg, percentage of increase decreases at higher doses): dose dependent increase
- change in indoximod Cmax versus indoximod in suspension [5]: significant increase

Compound: Cn1cc(C[C@@H](NC(=O)CN)C(=O)O)c2ccccc21 [Cpd 05, N^α-(L-glycyl)-1-methyl-D-tryptophan] (H-Gly-[dTrp(1-Me)]-OH)
- increase in indoximod AUC versus equivalent molar dose of indoximod ([1]; capsules): minor and non-statistically significant variations
- increase in indoximod Cmax versus equivalent molar dose of indoximod ([1]; capsules): minor and non-statistically significant variations

Compound: Cn1cc(C[C@@H](N)C(=O)OCC(O)CO)c2ccccc21 (stereo partly drawn) [NLG-1627, (2R)-1-(2,3-dihydroxypropoxy)-3-(1-methyl-1H-indol-3-yl)-1-oxopropan-2-aminium methanesulfonate]
- increase in indoximod AUC versus equivalent molar dose of indoximod ([1]; capsules, methanesulfonate): decrease
- increase in indoximod Cmax versus equivalent molar dose of indoximod ([1]; capsules, methanesulfonate): decrease
